US5190741A, “Agents for diagnosing and treating melanomas, aromatic halogenated derivatives usable as such agents and their preparation” (Institut National de la Sante et de la Recherche Medicale …, priority 1989, dated 1993)

How the values were obtained:
[1] = test system: melanoma in man; conditions: in vivo; cited from earlier work
[2] = test system: B16 murine melanoma; assay: Tissue distribution in C57 BL6 mice bearing B16; format: in vivo, mouse; conditions: for elimination kinetics: compared with derivative A; for marker of the B16 murine melanoma: mouse, in vivo
Protocol: The study of the tissue distribution of the ^125 I labelled compounds was performed in mice bearing grafted melanomas (cf. autoradiograms above). […] The animals are sacrificed at different time intervals of 1 to 24 hours after the injection. The blood is collected and the principal organs are excised. Aliquots are weighed and the radioactivity of the samples is measured in a […] 1191 counter (analytic tracer). The counting yield for iodine 125 is 60%. The results are expressed: as a percentage of the injected dose bound per g of tissue (% ID/g); in the form of the ratios [formula] This ratio reflects more precisely the selectivity of a molecule for an organ (tables 2, 4, 6, 8, 10 and 12).

[3] = test system: melanoma; conditions: in vivo; cited from earlier work
[4] = test system: grafted tumors; conditions: animals bearing grafted tumors; cited from earlier work

CC(C)NC(C)Cc1ccc([123I])cc1 (stereo not drawn) [^123 I-IMP]
detection of melanoma in man [1]: used for the detection of melanoma in man

CCN(CC)CCCNC(=O)c1ccc(I)cc1 [Derivative L]
elimination kinetics [2]: more rapid elimination | marker of the B16 murine melanoma [2]: markers of the B16 murine melanoma

CN(C)CCNC(=O)c1ccc(I)cc1 [Derivative E]
possibility for use in scanning ([2]; between 3 h and 6 h after administration): possibilities for use in scanning between 3 h and 6 h | elimination kinetics [2]: more rapid elimination | marker of the B16 murine melanoma [2]: markers of the B16 murine melanoma

O=C([O-])CC(O)(CC(=O)[O-])C(=O)[O-].[67Ga+3] [citrate of gallium 67]
elimination from the digestive tract [3]: very slow elimination from the digestive tract | localization in the liver and the kidney [3]: late and extensive localization in the liver and the kidney

CN(C)CCCNC(=O)c1ccc(I)cc1 [Derivative J]
elimination kinetics [2]: more rapid elimination | marker of the B16 murine melanoma [2]: markers of the B16 murine melanoma

CC(C)N(CCNC(=O)c1ccc(I)cc1)C(C)C [Derivative G]
marker of the B16 murine melanoma [2]: markers of the B16 murine melanoma

O=c1[nH]c(=S)[nH]cc1I [iodothiouracil labelled with ^125 I, iodothiouracil]
localization and treatment of malignant melanoma [4]: promising agent for the localization and the treatment of malignant melanoma
